Measured values published in patent US10966426B2, “Herbicidal compositions comprising phenylpyrimidines” (BASF SE, priority 2016, dated 2021).

Tests used:
Assay type in all cases: in vivo
Setaria viridis = assay: greenhouse pre-emergence treatment, SETVI; settings: SETVI
How it was run: (§1)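 Damage rated on 0 to 100 scale (0 = normal growth, 100 = no emergence or total above-ground kill) after 2-4 weeks at species-dependent 10-25° C or 20-35° C. Seeds sown per species in loamy sand, ~3.0% humus, treated right after sowing with aqueous spray of single actives or 10% emulsion-concentrate mixtures, then hooded; additive expectation by Colby.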

BRAPL = assay: greenhouse pre-emergence treatment, BRAPL; settings: Table X9, 21 DAT
Poa annua = assay: greenhouse pre-emergence treatment, POAAN; settings: Poa annua, 480 h, 20 DAT; for inhibition at 500000 µg/mL (stock): sc
Text: (§2) The culture containers used were plastic pots containing loamy sand with approximately 3.0% of humus as substrate. The seeds of the test plants were sown separately for each species.
(§3) For the pre-emergence treatment, the active compounds, suspended or emulsified in water, were applied directly after sowing by means of finely distributing nozzles. The containers were irrigated gently to promote germination and growth and subsequently covered with transparent plastic hoods until the plants had rooted. This cover caused uniform germination of the test plants unless this was adversely affected by the active compounds.
(§4) Depending on the species, the plants were kept at 10-25° C. and 20-35° C., respectively.
(§5) The test period extended over 2 to 4 weeks. During this time, the plants were tended and their response to the individual treatments was evaluated.
(§6) Evaluation was carried out using a scale from 0 to 100. 100 means no emergence of the plants, or complete destruction of at least the above-ground parts, and 0 means no damage or normal course of growth. A good herbicidal activity is given at values of at least 70, and very good herbicidal activity is given at values of at least 85.
(§7) The respective stated components A and B, and if appropriate, C were formulated as a 10% by weight strength emulsion concentrate and, with addition of the amount of solvent system, introduced into the spray liquor used for applying the active compound. In the examples, the solvent used was water.
(§8) In the examples below, using the method of S. R. Colby (1967) “Calculating synergistic and antagonistic responses of herbicide combinations”, Weeds 15, p. 22ff., the value E, which is expected if the activity of the individual active compounds is only additive, was calculated. E=X+Y−(X·Y/100) where X=effect in percent using herbicide A at an application rate a; • Y=effect in percent using herbicide B at application rate b; • E=expected effect (in %) of herbicide A+herbicide B at application rates a+b.

Papaver rhoeas = assay: greenhouse pre-emergence treatment, PAPRH; settings: 20 DAT
Text: as §2, §3, §4, §5, §6, §7, §8

Matricaria chamomilla = assay: greenhouse pre-emergence treatment, MATCH; settings: Matricaria chamomilla, 480 h, 20 DAT
Text: as §2, §3, §4, §5, §6, §7, §8

Lolium multiflorum = assay: greenhouse pre-emergence treatment, LOLMU; settings: Lolium multiflorum, 480 h, 20 DAT, LOLMU
How it was run: as §1

Polygonum convolvulus = assay: greenhouse pre-emergence treatment, POLCO; settings: Fallopia convolvulus, 480 h, 20 DAT, POLCO
How it was run: as §1

Galium aparine = assay: greenhouse pre-emergence treatment, GALAP; settings: Galium aparine, 480 h, solo, EC 800 g/l, GALAP, 500 gai/ha, 20 DAT
How it was run: as §1

Bromus sterilis = assay: greenhouse pre-emergence treatment, BROST; settings: Bromus sterilis, 480 h, 20 DAT, BROST
How it was run: as §1

Brachiaria decumbens = assay: greenhouse pre-emergence treatment, BRADC; settings: Urochloa decumbens, 480 h, 20 DAT, BRADC
How it was run: as §1

Alopecurus myosuroides = assay: greenhouse pre-emergence treatment, ALOMY; settings: Alopecurus myosuroides, 480 h, 20 DAT, solo terbuthylazin (SC 500 g/l) 250 gai/ha
Text: as §2, §3, §4, §5, §6, §7, §8

Avena fatua = assay: greenhouse pre-emergence treatment, AVEFA; settings: Avena fatua, 480 h, AVEFA, 20 DAT, solo terbuthylazin (SC 500 g/l) 500 gai/ha
How it was run: as §1

Stellaria media = assay: greenhouse pre-emergence treatment, STEME; settings: Stellaria media, 480 h, 20 DAT, solo terbuthylazin (SC 500 g/l) 62.5 gai/ha
Text: as §2, §3, §4, §5, §6, §7, §8

Echinocloa crus-galli = assay: greenhouse pre-emergence treatment, ECHCG; settings: 20 DAT; for % activity: terbuthylazin solo (SC 500 g/l)
Text: as §2, §3, §4, §5, §6, §7, §8

Digitaria sanguinalis = assay: greenhouse pre-emergence treatment, DIGSA; settings: Digitaria sanguinalis, sc, 480 h, DIGSA, 20 DAT
How it was run: as §1

Apera spica-venti = assay: greenhouse pre-emergence treatment, APESV; settings: Apera spica-venti, sc, 480 h, 20 DAT
How it was run: as §1

Ambrosia elatior = assay: greenhouse pre-emergence treatment, AMBEL; settings: Ambrosia artemisiifolia, 480 h, terbuthylazin solo (SC 500 g/l), 500 gai/ha, 20 DAT, AMBEL
How it was run: as §1

Lolium perenne = assay: greenhouse post-emergence treatment, LOLPE; settings: solo terbuthylazin (SC 500 g/l) 125 gai/ha, 20 DAT, 2nd series of rows
Method: as §2
To this end, the test plants were either sown directly, and grown in the same containers, or they were first grown separately as seedlings and transplanted into the test containers a few days prior to treatment.
as §4, §5, §6
In the examples, the solvent used was water.
In the examples below, using the method of S. R. Colby (1967) “Calculating synergistic and antagonistic responses of herbicide combinations”, Weeds 15, p. […] E=X+Y−(X·Y/100) where X=effect in percent using herbicide A at an application rate a; • Y=effect in percent using herbicide B at application rate b; • E=expected effect (in %) of herbicide A+herbicide B at application rates a+b.

[1] = prosulfocarb solo 250 gai/ha, read-out: % activity
[2] = solo terbuthylazin (SC 500 g/l) 62.5 gai/ha
[3] = solo terbuthylazin (SC 500 g/l) 125 gai/ha
[4] = solo terbuthylazin (SC 500 g/l) 250 gai/ha
[5] = sc, solo terbuthylazin (SC 500 g/l) 250 gai/ha
[6] = sc, solo terbuthylazin (SC 500 g/l) 500 gai/ha

O=C(Nc1ccc(F)cc1F)c1cccnc1Oc1cccc(C(F)(F)F)c1 [diflufenican]
% activity (Setaria viridis; Table X9, 21 DAT, solo diflufenican (SC 500 g/l) 60 gai/ha): 70%
% activity (BRAPL; solo diflufenican (SC 500 g/l) 15 gai/ha): 0%
% activity (BRAPL; solo diflufenican (SC 500 g/l) 30 gai/ha): 0%
% activity (BRAPL; solo diflufenican (SC 500 g/l) 120 gai/ha): 20%

CCCN(CCC)C(=O)SCc1ccccc1 [prosulfocarb]
inhibition at 125 g/ha (Poa annua; prosulfocarb solo 125 gai/ha): 0%
inhibition at 1000 g/ha (Papaver rhoeas; Papaver rhoeas, 480 h, prosulfocarb solo 1000 gai/ha): 70%
% activity (Papaver rhoeas; solo, EC 800 g/l, 1000 gai/ha): 70%
inhibition at 250 g/ha (Matricaria chamomilla; prosulfocarb solo 250 gai/ha): 0%
inhibition at 1000 g/ha (Matricaria chamomilla; prosulfocarb solo 1000 gai/ha): 65%
inhibition at 250 g/ha (Lolium multiflorum; prosulfocarb solo 250 gai/ha): 30%
inhibition at 250 g/ha (Polygonum convolvulus; [1]): 0%
inhibition at 1000 g/ha (Polygonum convolvulus; prosulfocarb solo 1000 gai/ha): 80%
inhibition at 250 g/ha (Setaria viridis; Setaria viridis, 480 h, prosulfocarb solo 250 gai/ha, 20 DAT): 40%
inhibition at 1000 g/ha (Setaria viridis; Setaria viridis, 480 h, prosulfocarb solo 1000 gai/ha, 20 DAT): 85%
% activity (Setaria viridis; solo, EC 800 g/l, 125 gai/ha, 20 DAT): 10%
pest or weed control at 500 g/ha (Galium aparine): 30%
inhibition at 250 g/ha (Bromus sterilis; [1]): 0%
inhibition at 500 g/ha (Bromus sterilis; prosulfocarb solo 500 gai/ha): 40%
inhibition at 1000 g/ha (Bromus sterilis; prosulfocarb solo 1000 gai/ha): 50%
% herbicidal activity (weed control, 0-100 scale) at 250 g/ha (Brachiaria decumbens; prosulfocarb solo 250 gai/ha): 0%
% herbicidal activity (weed control, 0-100 scale) at 500 g/ha (Brachiaria decumbens; prosulfocarb solo 500 gai/ha): 20%

CCNc1nc(Cl)nc(NC(C)(C)C)n1 [terbuthylazin, terbuthylazine]
inhibition at 500000 µg/mL (stock) (Poa annua; [2]): 0%
inhibition at 500000 µg/mL (stock) (Poa annua; [3]): 30%
inhibition at 500000 µg/mL (stock) (Poa annua; [4]): 70%
inhibition at 500000 µg/mL (stock) (Alopecurus myosuroides): 40%
inhibition at 500000 µg/mL (Avena fatua): 0%
inhibition at 500000 µg/mL (stock) (Lolium multiflorum; sc, solo terbuthylazin (SC 500 g/l) 125 gai/ha): 0%
inhibition at 500000 µg/mL (stock) (Lolium multiflorum; [5]): 10%
inhibition at 500000 µg/mL (Lolium multiflorum; [6]): 35%
pest or weed control at 500000 µg/mL, 500 g/ha (Polygonum convolvulus; terbuthylazin solo (SC 500 g/l), 500 gai/ha): 65%
inhibition at 500000 µg/mL (stock) (Polygonum convolvulus; [5]): 0%
inhibition at 500000 µg/mL (Polygonum convolvulus; [6]): 65%
inhibition at 500000 µg/mL (stock) (Setaria viridis; Setaria viridis, 480 h, 20 DAT, solo terbuthylazin (SC 500 g/l) 250 gai/ha): 0%
% activity (Setaria viridis; terbuthylazin solo (SC 500 g/l), 62.5 gai/ha, 20 DAT): 0%
% activity (Setaria viridis; terbuthylazin solo (SC 500 g/l), 125 gai/ha, 20 DAT): 0%
% activity (Setaria viridis; terbuthylazin solo (SC 500 g/l), 250 gai/ha, 20 DAT): 0%
inhibition at 500000 µg/mL (stock) (Stellaria media): 70%
inhibition at 500000 µg/mL (Echinocloa crus-galli; Echinochloa crus-galli, 480 h, solo terbuthylazin (SC 500 g/l) 500 gai/ha): 0%
% activity (Echinocloa crus-galli; 62.5 gai/ha): 0%
% activity (Echinocloa crus-galli; 125 gai/ha): 0%
inhibition at 500000 µg/mL (stock) (Digitaria sanguinalis; [3]): 0%
inhibition at 500000 µg/mL (stock) (Digitaria sanguinalis; [4]): 0%
inhibition at 500000 µg/mL (Digitaria sanguinalis; solo terbuthylazin (SC 500 g/l) 500 gai/ha): 20%
inhibition at 500000 µg/mL (stock) (Bromus sterilis; [4]): 0%
inhibition at 500000 µg/mL (stock) (Apera spica-venti; [2]): 0%
inhibition at 500000 µg/mL (stock) (Apera spica-venti; [3]): 50%
pest or weed control at 500000 µg/mL, 500 g/ha (Ambrosia elatior): 65%
% activity (Lolium perenne): 35%
